Literature values, collected in patent publication US20180177744A1, “METHOD OF TREATING PAIN AND […] A HYBRID MIXTURE OF S-KETAMINE AND R-KETAMINE” (priority 2016, published 2018).
Read-outs that look alike come from different tables or passages of the source.

Columns and labels:
[1] = mice; versus esketamine
[2] = in vivo
[3] = liquid formulation at 30 mg to 50 mg, intranasal (IN) route
[4] = not given; remark: listed apart in the source
dopamine transporters = details: versus arketamine
[5] = tested on: phencyclidine binding sites on the NMDA receptors; details: versus arketamine
[6] = for anaesthetic potency relative to arketamine (R-isomer): clinically, versus arketamine

Sequence of dopamine transporters (Q01959 whole entry): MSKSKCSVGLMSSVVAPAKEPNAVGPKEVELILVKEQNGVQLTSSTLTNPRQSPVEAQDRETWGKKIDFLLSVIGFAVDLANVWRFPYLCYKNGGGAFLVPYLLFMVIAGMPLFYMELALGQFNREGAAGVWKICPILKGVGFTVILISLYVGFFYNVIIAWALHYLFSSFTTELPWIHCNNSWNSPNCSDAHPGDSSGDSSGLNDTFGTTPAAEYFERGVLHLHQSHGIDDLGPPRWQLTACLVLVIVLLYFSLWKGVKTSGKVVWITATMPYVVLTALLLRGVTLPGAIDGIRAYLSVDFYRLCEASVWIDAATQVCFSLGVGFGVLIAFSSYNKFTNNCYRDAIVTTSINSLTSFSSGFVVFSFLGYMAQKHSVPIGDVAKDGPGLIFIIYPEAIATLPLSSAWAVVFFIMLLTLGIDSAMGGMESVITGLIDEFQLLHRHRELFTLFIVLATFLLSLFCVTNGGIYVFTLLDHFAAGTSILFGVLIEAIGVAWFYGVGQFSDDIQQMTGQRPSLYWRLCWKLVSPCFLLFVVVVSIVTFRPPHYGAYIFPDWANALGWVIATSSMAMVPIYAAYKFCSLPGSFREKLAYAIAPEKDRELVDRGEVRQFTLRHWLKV

Row | SMILES | rapid antidepressant effect [1] | glucose metabolism in the brain [2] | psychotomimetic effects (in vivo) | ability to stop acute and/or breakthrough pain [3] | elimination from the human body [4] | inhibition of dopamine transporters relative to arketamine (dopamine transporters) | binding to sigma receptors (sigma receptors) | affinity for the PCP binding site of the NMDA receptor relative to arketamine ([5]; listed as Esketamine) | affinity for the PCP binding site of the NMDA receptor relative to arketamine ([5]; listed as S(+)ketamine) | anaesthetic potency relative to arketamine (R-isomer) [6] | anaesthetic potency relative to arketamine (R-isomer) ([6]; listed as S(+)ketamine) | anesthetic potency relative to racemic ketamine ([6]; versus racemic ketamine) | recovery of cerebral functions (after anaesthesia, study persons)
1 | CN[C@@]1(c2ccccc2Cl)CCCCC1=O [arketamine, R(−)-ketamine] | greater and lasted longer than that of esketamine | decreases glucose metabolism in the brain | devoid of psychotomimetic effects | – | – | – | – | – | – | – | – | – | –
2 | CNC1(c2ccccc2Cl)CCCCC1=O (racemic) [racemic ketamine, 2-(2-chlorphenyl)-2-(methylamino)-cyclohexanone] | – | – | – | stop acute and/or breakthrough pain | – | – | – | – | – | – | – | – | –
3 | CN[C@]1(c2ccccc2Cl)CCCCC1=O [esketamine, S(+)-ketamine] | – | increases glucose metabolism in the frontal cortex | – | – | more quickly than arketamine (R(−)-ketamine) or racemic ketamine | eight times more | does not bind significantly | 3-4 times | three to four times greater | 3-4 times | three to four times | two times | more rapid recovery of cerebral functions
